Converted amounts (≈) assume the structure as drawn.
Columns and labels:
[1] = target: human Fibroblast activation protein alpha (hFAP) (Homo sapiens (Human), UniProt Q12884); assay: hFAP inhibition assay (tight binders); format: biochemical; conditions: tight-binder format, Ala-Pro-AMC 20 μM, 2.5 h incubation; n = 1 or geometric mean (n = 5-10)
Protocol: Data were analyzed in Genedata Screener®.

FAP Human Plasma = FAP Human Plasma (Homo sapiens (Human), UniProt Q12884); assay: FAP plasma inhibition assay, human plasma; format: biochemical; conditions: human plasma dilution 1:40, Ala-Pro-AMC 75 μM; n = 1
Sequence of FAP Human Plasma (Q12884 24-760 limits assumed): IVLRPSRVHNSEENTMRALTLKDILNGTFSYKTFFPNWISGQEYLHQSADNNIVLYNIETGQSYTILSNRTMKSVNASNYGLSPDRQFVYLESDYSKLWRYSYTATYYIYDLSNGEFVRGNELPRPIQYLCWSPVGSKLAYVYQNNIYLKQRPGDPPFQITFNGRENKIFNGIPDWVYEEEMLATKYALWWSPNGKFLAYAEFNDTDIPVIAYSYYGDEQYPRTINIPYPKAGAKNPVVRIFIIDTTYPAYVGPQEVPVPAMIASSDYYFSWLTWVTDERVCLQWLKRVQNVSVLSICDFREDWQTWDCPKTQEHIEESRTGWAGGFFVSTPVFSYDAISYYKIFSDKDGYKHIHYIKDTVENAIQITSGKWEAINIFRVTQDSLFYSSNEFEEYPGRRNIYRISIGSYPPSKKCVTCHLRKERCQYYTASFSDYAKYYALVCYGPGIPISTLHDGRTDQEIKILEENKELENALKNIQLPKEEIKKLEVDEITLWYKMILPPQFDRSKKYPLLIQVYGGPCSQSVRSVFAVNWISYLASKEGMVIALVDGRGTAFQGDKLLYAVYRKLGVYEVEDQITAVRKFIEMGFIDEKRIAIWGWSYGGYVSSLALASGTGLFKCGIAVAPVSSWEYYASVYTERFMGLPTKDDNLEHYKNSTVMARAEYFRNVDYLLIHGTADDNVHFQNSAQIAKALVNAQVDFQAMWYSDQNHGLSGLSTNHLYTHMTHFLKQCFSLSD
Protocol: (§1) This assay was adapted from the method described in Example 53 for detection of FAP target engagement enzyme activity in plasma. Plasma (anticoagulant K2EDTA) was used as the enzyme source: Human plasma (Pooled from AZ Biobank) and Mouse plasma (AZ AST Biobank). 384-Well black fluotrack PS plates (Greiner 781076) were used. 20 μL diluted plasma (Human plasma dilution 1:40, Mouse plasma dilution 1:67) in buffer (PBS, 0.1% BSA) was added to 0.6 μL compounds (in DMSO). Compounds were tested using 10 CR, 3-fold dilution series from 500 nM FAC. Two replicates for each assay point were run on the same plate. A fluorescence blank read was taken before substrate addition. Substrate, Ala-Pro-AMC (ARI-3144) stock solution (20 mM in DMSO) was diluted in buffer (PBS, 0.1% BSA) to 150 μM concentration and 20 μL added giving 75 μM FAC. Plates were incubated for 40 min at rt in the dark. The plates were read on a Beckman Paradigm® reader with excitation 360 nm and emission 465 nm. Data were analyzed in Excel (IDBS XLfit Add-In) using a one site dose response model (4-parameter logistic fit). […] Raw data signals were normalized using 1.5% DMSO in diluted plasma as 0% control and 1.5% DMSO in buffer (no plasma) as 100% inhibitor control.

FAP Mouse Plasma = FAP Mouse Plasma (Mus musculus (Mouse), UniProt P97321); assay: FAP plasma inhibition assay, mouse plasma; format: biochemical; conditions: mouse plasma dilution 1:67, Ala-Pro-AMC 75 μM; n = 1
Sequence of FAP Mouse Plasma (P97321 24-761 limits assumed): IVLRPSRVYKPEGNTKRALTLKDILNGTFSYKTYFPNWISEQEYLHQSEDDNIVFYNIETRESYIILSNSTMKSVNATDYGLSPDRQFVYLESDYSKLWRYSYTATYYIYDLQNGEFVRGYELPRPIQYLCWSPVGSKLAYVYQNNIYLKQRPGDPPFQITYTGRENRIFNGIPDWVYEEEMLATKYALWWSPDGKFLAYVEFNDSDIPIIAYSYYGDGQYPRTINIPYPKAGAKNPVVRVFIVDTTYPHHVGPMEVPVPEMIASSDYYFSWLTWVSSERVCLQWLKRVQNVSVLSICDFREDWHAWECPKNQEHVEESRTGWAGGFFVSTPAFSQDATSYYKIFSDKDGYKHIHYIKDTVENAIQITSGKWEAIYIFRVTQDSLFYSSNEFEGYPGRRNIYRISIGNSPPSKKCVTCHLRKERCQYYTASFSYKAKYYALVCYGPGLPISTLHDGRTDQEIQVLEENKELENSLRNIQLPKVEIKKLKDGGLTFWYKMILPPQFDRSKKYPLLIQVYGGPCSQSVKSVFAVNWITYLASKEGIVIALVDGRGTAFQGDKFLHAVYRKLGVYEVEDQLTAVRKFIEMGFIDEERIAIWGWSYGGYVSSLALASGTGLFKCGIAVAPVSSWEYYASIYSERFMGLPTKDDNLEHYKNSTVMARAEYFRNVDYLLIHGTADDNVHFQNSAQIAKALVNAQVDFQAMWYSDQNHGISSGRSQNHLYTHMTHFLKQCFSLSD
Protocol: as §1

[2] = target: Prolyl Oligopeptidase (hPREP) (Homo sapiens (Human), UniProt P48147); assay: hPREP inhibition assay; format: biochemical; conditions: hPREP 0.6 nM, Z-Gly-Pro-amino-methylcoumarin 50 μM; read-out: PREP IC50
Sequence of Prolyl Oligopeptidase (hPREP) (P48147 whole entry): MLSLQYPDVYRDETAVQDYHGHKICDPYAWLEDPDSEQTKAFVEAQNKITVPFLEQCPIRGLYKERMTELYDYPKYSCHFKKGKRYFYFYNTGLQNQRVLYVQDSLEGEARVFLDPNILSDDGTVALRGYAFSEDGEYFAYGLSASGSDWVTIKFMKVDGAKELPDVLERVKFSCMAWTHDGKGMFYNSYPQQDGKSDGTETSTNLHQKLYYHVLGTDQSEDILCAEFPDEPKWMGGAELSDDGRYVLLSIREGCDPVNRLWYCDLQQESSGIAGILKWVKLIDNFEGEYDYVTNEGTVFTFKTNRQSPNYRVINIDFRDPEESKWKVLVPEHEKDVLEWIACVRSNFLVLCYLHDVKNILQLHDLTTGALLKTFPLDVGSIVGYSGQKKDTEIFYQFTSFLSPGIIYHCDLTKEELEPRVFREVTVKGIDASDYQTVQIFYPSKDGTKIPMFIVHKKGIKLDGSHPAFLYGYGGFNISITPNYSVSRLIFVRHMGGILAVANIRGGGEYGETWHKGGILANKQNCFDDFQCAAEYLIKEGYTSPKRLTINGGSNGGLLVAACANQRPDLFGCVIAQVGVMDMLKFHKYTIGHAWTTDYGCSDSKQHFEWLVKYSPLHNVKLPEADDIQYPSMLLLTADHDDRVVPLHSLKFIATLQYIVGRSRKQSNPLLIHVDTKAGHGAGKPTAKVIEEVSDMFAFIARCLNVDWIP
Protocol: Compounds were tested in a biochemical inhibition assay using Prolyl endopeptidase, Prolyl Oligopeptidase (hPREP) enzyme at 0.6 nM FAC (R&D Systems, 4308-SE) and the substrate Z-Gly-Pro-amino-methylcoumarin (Bachem, I-1145) at 50 μM FAC. 384 Low volume black plates (Greiner #784076) were used. […] 4 μL, 100 μM substrate solution (25 mM Tris HCl, 250 mM NaCl, 0.01% Triton X-100, 5 mM Glutathione, pH 7.5) was added to each well. Plates were centrifuged at 1000 rpm and incubated for 20 min at rt in dark. […] Data were analyzed in Genedata Screener®.

[3] = Metabolic stability in human liver microsomes (HLM); format: in vitro ADME
Protocol: Metabolic stability in HLM was measured as described in J Comput Aided Mol Des 2015, 29, 795.

Rat Hepatocytes (rHep) = assay: Metabolic stability in rat hepatocytes (rHep); format: in vitro ADME
Protocol: Metabolic stability in rat hepatocytes was measured as described in J Comput Aided Mol Des 2015, 29, 795.

Human Hepatocytes (hHep) = assay: Metabolic stability in human hepatocytes (hHep); format: in vitro ADME
Protocol: Metabolic stability in human hepatocytes was measured as described in Xenobiotica 2010, 40, 637.

Kinetic solubility = format: physicochemical; conditions: kinetic from dmso stock
Protocol: Kinetic solubility was measured as described in Comput Aided Mol Des 2015, 29, 795.

hFAP = hFAP (Homo sapiens (Human), UniProt Q12884);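 further: fluorescence read after incubating enzyme with substrate at room temperature, IC50 fitted from percent inhibition against log concentration with a one-site model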
Sequence of hFAP (Q12884 38-760): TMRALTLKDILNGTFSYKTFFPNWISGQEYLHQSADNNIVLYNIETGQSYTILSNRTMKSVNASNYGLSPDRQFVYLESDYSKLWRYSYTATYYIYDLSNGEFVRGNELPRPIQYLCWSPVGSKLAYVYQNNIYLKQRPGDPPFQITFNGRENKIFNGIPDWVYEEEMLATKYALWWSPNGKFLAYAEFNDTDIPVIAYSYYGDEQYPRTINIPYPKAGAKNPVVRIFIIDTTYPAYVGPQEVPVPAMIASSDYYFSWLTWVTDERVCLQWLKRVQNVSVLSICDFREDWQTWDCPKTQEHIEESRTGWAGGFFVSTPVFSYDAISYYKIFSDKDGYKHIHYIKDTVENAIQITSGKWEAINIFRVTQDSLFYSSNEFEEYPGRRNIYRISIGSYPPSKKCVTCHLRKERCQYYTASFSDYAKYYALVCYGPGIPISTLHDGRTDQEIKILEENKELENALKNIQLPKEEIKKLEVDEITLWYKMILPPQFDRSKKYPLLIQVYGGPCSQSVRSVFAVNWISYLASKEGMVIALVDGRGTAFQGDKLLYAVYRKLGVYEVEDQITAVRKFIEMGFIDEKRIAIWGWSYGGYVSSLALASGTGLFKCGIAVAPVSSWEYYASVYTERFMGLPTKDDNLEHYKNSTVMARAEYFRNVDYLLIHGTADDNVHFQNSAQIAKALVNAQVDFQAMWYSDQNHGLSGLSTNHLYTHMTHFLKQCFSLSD

[4] = Caco-2 AB intrinsic permeability; format: in vitro ADME; conditions: human, A to B, read-out: Caco2 AB Intrinsic Papp
Protocol: (§2) Caco-2 cell permeability was measured as described in Mol/Pharm 2017, 14, 1601.

[5] = Caco-2 bidirectional (ABBA) permeability; format: in vitro ADME; conditions: human
Protocol: as §2

Sequence of human Fibroblast activation protein alpha (hFAP) (Q12884 38-760): as above

| SMILES | IC50 [1] [nM] | IC50 (FAP Human Plasma) [nM] | IC50 (FAP Mouse Plasma) [nM] | IC50 [2] [nM] | microsomal CLint [3] [µL/min/mg] | rHeps CLint (Rat Hepatocytes (rHep)) [μL/min/1E6] | hHep CLint (Human Hepatocytes (hHep)) [μL/min/1E6] | solubility (Kinetic solubility) [µM] | IC50 (hFAP) [nM] | Papp [4] [×10⁻⁶ cm/s] | Papp A→B ([5]; A to B, read-out: Caco2 Bidirectional (ABBA) A to B Papp) [×10⁻⁶ cm/s] | Papp B→A ([5]; B to A, read-out: Caco2 Bidirectional (ABBA) B to A Papp) [×10⁻⁶ cm/s] | efflux ratio ([5]; read-out: Caco2 Bidirectional (ABBA) Efflux Ratio) |
| --- | --- | --- | --- | --- | --- | --- | --- | --- | --- | --- | --- | --- | --- |
| N#C[C@@H]1C[C@@H]2C[C@@H]2N1C(=O)CNC(=O)c1ccnc2ccc(Br)cc12 [Example 1, 6-Bromo-N-(2-((1S,3S,5S)-3-cyano-2-azabicyclo[3.1.0]hexan-2-yl)-2-oxoethyl)quinoline-4-carboxamide] | 0.44 | 23 | 20 | 27000 | 9.7 | 3.8 | 2.8 | 290 (≈ 116 µg/mL) | 2 |  |  |  |  |
| N#C[C@@H]1C[C@@H]2C[C@@H]2N1C(=O)CNC(=O)c1ccnc2cc(Br)ccc12 [Example 3, 7-Bromo-N-(2-((1S,3S,5S)-3-cyano-2-azabicyclo[3.1.0]hexan-2-yl)-2-oxoethyl)quinoline-4-carboxamide] | 0.12 | 15 | 15 | > 50000 | < 3 | 4.5 | <1 | 210 (≈ 83.8 µg/mL) | 0.68 |  |  |  |  |
| Cc1ccc2nccc(C(=O)NCC(=O)N3[C@H](C#N)C[C@@H]4C[C@@H]43)c2c1 [Example 9, N-(2-((1S,3S,5S)-3-Cyano-2-azabicyclo[3.1.0]hexan-2-yl)-2-oxoethyl)-6-methylquinoline-4-carboxamide] | 0.56 | 7.5 | 2.7 | > 50000 |  |  |  |  | < 2.8 |  |  |  |  |
| N#C[C@@H]1C[C@@H]2C[C@@H]2N1C(=O)CNC(=O)c1ccnc2ccc(C(F)(F)F)cc12 [Example 10, N-(2-((1S,3S,5S)-3-Cyano-2-azabicyclo[3.1.0]hexan-2-yl)-2-oxoethyl)-6-(trifluoromethyl)quinoline-4-carboxamide] |  | 34 | 15 | > 50000 | 37 | 6.7 | 7 | 140 (≈ 54.4 µg/mL) | 4.8 |  |  |  |  |
| Cc1ccc2c(C(=O)NCC(=O)N3[C@H](C#N)C[C@@H]4C[C@@H]43)cc(C)nc2c1 [Example 31, N-(2-((1S,3S,5S)-3-Cyano-2-azabicyclo[3.1.0]hexan-2-yl)-2-oxoethyl)-2,7-dimethylquinoline-4-carboxamide] | 11 | 320 |  | 38000 | 6.2 | 1.6 | <1 | > 1000 | 31 | 56 |  |  |  |
| N#C[C@@H]1C[C@@H]2C[C@@H]2N1C(=O)CNC(=O)c1ccnc2cc(C3CC3)ccc12 [Example 37, N-(2-((1S,3S,5S)-3-Cyano-2-azabicyclo[3.1.0]hexan-2-yl)-2-oxoethyl)-7-cyclopropylquinoline-4-carboxamide] | 0.3 | 5.5 | 2.4 | > 50000 | 8.4 | 49 | 2.3 | 810 (≈ 292 µg/mL) | < 1.7 | 29 | 18 | 33 | 1.8 |
| COc1ccc2c(C(=O)NCC(=O)N3[C@H](C#N)C[C@@H]4C[C@@H]43)cc(C)nc2c1 [Example 41, N-(2-((1S,3S,5S)-3-Cyano-2-azabicyclo[3.1.0]hexan-2-yl)-2-oxoethyl)-7-methoxy-2-methylquinoline-4-carboxamide] |  | 380 | 300 |  | < 3 | <1 | <1 | 120 (≈ 43.7 µg/mL) | 38 |  |  |  |  |
